pIC50: −log10 of the molar value.
Assays:
[1] = biological target: Neuraminidase (Influenza A virus) (UniProt A5Z252); conditions: Influenza A virus (A/Anhui/1/2005(H5N1)); at 10 µM
[2] = biological target: Neuraminidase (Influenza A virus) (UniProt A5Z252); conditions: Influenza A virus (A/Anhui/1/2005(H5N1)); at 100 µM
[3] = biological target: T1, Neuraminidase (Influenza A virus, UniProt B4URF0); test: Inhibition of Influenza A virus A/Anhui/1/2013(H7N9) neuraminidase 150 cavity at 10 uM using MUNANA as substrate preincubated for 5 to 15 mins followed by substrate addition measured after 30 mins by fluorescence assay relative to control
T1 sequence (B4URF0 whole entry): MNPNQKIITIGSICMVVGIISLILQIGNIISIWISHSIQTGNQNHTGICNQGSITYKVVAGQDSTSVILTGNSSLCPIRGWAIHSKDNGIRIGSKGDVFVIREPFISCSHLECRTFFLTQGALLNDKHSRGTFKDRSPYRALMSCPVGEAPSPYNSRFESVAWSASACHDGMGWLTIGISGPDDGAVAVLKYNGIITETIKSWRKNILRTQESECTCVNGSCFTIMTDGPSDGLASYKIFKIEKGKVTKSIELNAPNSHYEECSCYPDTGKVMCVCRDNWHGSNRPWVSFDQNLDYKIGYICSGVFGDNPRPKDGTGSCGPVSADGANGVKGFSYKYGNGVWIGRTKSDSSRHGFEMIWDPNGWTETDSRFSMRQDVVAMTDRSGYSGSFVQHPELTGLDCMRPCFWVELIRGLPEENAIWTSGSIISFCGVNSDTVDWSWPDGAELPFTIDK

[4] = biological target: Neuraminidase (Influenza A virus, UniProt A5Z252); test: Inhibition of Influenza A virus A/Anhui/1/2005(H5N1) neuraminidase using MUNANA as substrate preincubated for 5 to 15 mins followed by substrate addition measured after 30 mins by fluorescence assay
[5] = biological target: T1, Neuraminidase; test: Inhibition of Influenza A virus A/California/04/2009(H1N1) neuraminidase using MUNANA as substrate preincubated for 5 to 15 mins followed by substrate addition measured after 30 mins by fluorescence assay

SMILES	inhibition [1] [%]	inhibition [2] [%]	pIC50 [4]	other results
CCC(CC)O[C@@H]1C=C(C(=O)O)C[C@H](NC(=O)/C=C/c2ccccc2)[C@H]1NC(C)=O	14.5	50.2	–	–
CCC(CC)O[C@@H]1C=C(C(=O)O)C[C@H](NC(=O)CN(C)C)[C@H]1NC(C)=O	30	58.2	–	–
CCC(CC)O[C@@H]1C=C(C(=O)O)C[C@H](NC(=O)Cc2c[nH]c3ccccc23)[C@H]1NC(C)=O	12.8	47.3	–	–
CCCCCC(=O)N[C@H]1CC(C(=O)O)=C[C@@H](OC(CC)CC)[C@@H]1NC(C)=O	–	33.2	–	–
CCC(CC)O[C@@H]1C=C(C(=O)O)C[C@H](NC(C)=O)[C@H]1NC(C)=O	–	–	6.62	pIC50 [3]: 7.23; pIC50 [5]: 7.78
CCCCC(=O)N[C@H]1CC(C(=O)O)=C[C@@H](OC(CC)CC)[C@@H]1NC(C)=O	–	11.3	–	–
CCC(CC)O[C@@H]1C=C(C(=O)O)C[C@H](NC(=O)[C@@H](C)N)[C@H]1NC(C)=O	18.8	49.3	–	–
CCC(CC)O[C@@H]1C=C(C(=O)O)C[C@H](NC(=O)CCc2ccccc2)[C@H]1NC(C)=O	–	19.1	–	–
CCC(CC)O[C@@H]1C=C(C(=O)O)C[C@H](NC(=O)Cc2ccc(C)cc2)[C@H]1NC(C)=O	10	57.2	–	–
CCOC(=O)C1=C[C@@H](OC(CC)CC)[C@H](NC(C)=O)[C@@H](N)C1	91	95.5	–	–
CCC(CC)O[C@@H]1C=C(C(=O)O)C[C@H](NC(=O)CF)[C@H]1NC(C)=O	–	–	6.64	–
CCC(CC)O[C@@H]1C=C(C(=O)O)C[C@H](NC(=O)C(C)C)[C@H]1NC(C)=O	14.2	47.6	–	–
C=CC(=O)N[C@H]1CC(C(=O)O)=C[C@@H](OC(CC)CC)[C@@H]1NC(C)=O	–	–	5.53	–
CCC(CC)O[C@@H]1C=C(C(=O)O)C[C@H](NC(=O)CCCc2ccccc2)[C@H]1NC(C)=O	–	36	–	–
CCCC(=O)N[C@H]1CC(C(=O)O)=C[C@@H](OC(CC)CC)[C@@H]1NC(C)=O	14.7	66.8	–	–
CCC(=O)N[C@H]1CC(C(=O)O)=C[C@@H](OC(CC)CC)[C@@H]1NC(C)=O	47.9	84.5	–	–
CCC(CC)O[C@@H]1C=C(C(=O)O)C[C@H](NC(=O)CN)[C@H]1NC(C)=O	–	–	5.57	–
CCC(CC)O[C@@H]1C=C(C(=O)O)C[C@H](NC(=O)C(F)F)[C@H]1NC(C)=O	–	–	6.72	–
CCC(CC)O[C@@H]1C=C(C(=O)O)C[C@H](NC(=O)[C@H](O)CCc2ccccc2)[C@H]1NC(C)=O	49.2	60.4	–	–
CCC(CC)O[C@@H]1C=C(C(=O)O)C[C@H](NC(=O)C(F)(F)F)[C@H]1NC(C)=O	–	–	6.58	–
CCC(CC)O[C@@H]1C=C(C(=O)O)C[C@H](NC=O)[C@H]1NC(C)=O	–	–	5.89	–

Source: ChEMBL document CHEMBL4251557 (Eur J Med Chem, 2017)
